These results are taken from patent US9045390B2, “Haloalkylmethyleneoxyphenyl-substituted ketoenols” (Bayer CropScience AG, priority 2009, dated 2015).

Molecules are shown by their SMILES. Where two headings read alike, the source gives them in different places. Bounds are passed on as bounds.

In data set [1] the test system is cereals. Briefly: Container trials with cereals in a greenhouse, mefenpyr 1 day before herbicide application. The format is in vivo. As to the method: (§1) Seeds of monocotyledonous and dicotyledonous weed and crop plants are placed in sandy loam in wood fibre pots, covered with soil and cultivated in a greenhouse under good growth conditions. Two to three weeks after sowing, the test plants are treated at the one-leaf stage. The test compounds, formulated as wettable powders (WP), are sprayed onto the green parts of the plants in different dosages with a water application rate of 600 l/ha (converted), with 0.2% added wetting agent. After the test plants have been kept in the greenhouse under optimal growth conditions for about three weeks, the effect of the preparations is assessed visually by comparison to untreated controls (herbicidal effect in per cent: 100% effect=the plants have died, 0% effect=like control plants).
(§2) If there is to be an additional test as to whether safeners can improve the plant compatibility of test substances in the case of crop plants, the following options are used for applying the safeners: • Seeds of the crop plants are, before sowing, dressed with safener substance (the amount of safener stated in per cent, based on the weight of the seed) • Before the application of the test substances, the crop plants are sprayed with the safener at a certain application rate per hectare (usually one day before the application of the test substances) • The safener is applied together with the test substance as a tankmix (the amount of safener is stated in g/ha or as a ratio, based on the herbicide).
Container Trials with Cereals in a Greenhouse
Mefenpyr 1 Day Before Herbicide Application

Data set [2] deals with green peach aphid (Myzus persicae). Description: Myzus test (MYZUPE spray treatment). Conditions: application rate 20 g/ha, Chinese cabbage leaf discs. The data set is classed as in vivo. How it is done:
Myzus Test (MYZUPE Spray Treatment)
To prepare an appropriate active ingredient preparation, 1 part by weight of active ingredient is mixed with the stated amounts of solvent and emulsifier, and the concentrate is diluted with emulsifier-containing water to the desired concentration.
Discs of Chinese cabbage (Brassica pekinensis) infected by all stages of the green peach aphid (Myzus persicae) are sprayed with an active ingredient preparation of the desired concentration.
After the desired time, the effect in % is determined. 100% means that all of the aphids have been killed; 0% means that none of the aphids have been killed.

The subject of data set [3] is cotton aphid (Aphis gossypii). Briefly: Aphis gossypii test (with ammonium salts and penetration enhancers). The data set is classed as in vivo. Conditions: for Kill rate/% after 6 days: active ingredient alone, cotton plants. How it is done:
Aphis gossypsi Test [table] To prepare an appropriate active ingredient preparation, 1 part by weight of active ingredient is mixed with the stated amounts of solvent and emulsifier, and the concentrate is diluted to the desired concentration with emulsifier-containing water. […] Cotton plants (Gossypium hirsutum) heavily infested by the cotton aphid (Aphis gossypii) are treated by spraying to runoff point with the active ingredient preparation of the desired concentration.

For data set [4], the system named is Maize (Arsenal). Briefly: Container tests with maize-soya-cotton in a greenhouse, cyprosulfamide 1 day before herbicide application. The format is in vivo. As to the method: as §1, §2
(§3) Container Tests with Maize-Soya-Cotton in a Greenhouse
(§4) Cyprosulfamide 1 Day Before Herbicide Application

Data set [5] deals with Maize (Cecilia). The format is in vivo. How it is done: as §1, §2, §3, §4
Data set [6] in a line: log P determination by HPLC/LC-MS on reversed-phase column (C 18). The format is physicochemical. Conditions: pH 2.7, 0.1% aqueous formic acid and acetonitrile; for chromatographic logP: reversed-phase column (C 18), pH 2.7, LC-MS acidic range, read-out: log P (HCOOH). How it is done:
The log P values reported in the above tables and preparation examples are determined according to EEC Directive 79/831 Annex V.A8 by HPLC (High Performance Liquid Chromatography) on a reversed-phase column (C 18). Temperature: 43° C.
The determination is effected in the acidic range at pH 2.3 with 0.1% aqueous phosphoric acid and acetonitrile as eluent; linear gradient from 10% acetonitrile to 95% acetonitrile.
The determination by LC-MS in the acidic range is effected at pH 2.7 with 0.1% aqueous formic acid and acetonitrile (contains 0.1% formic acid) as the eluent; linear gradient from 10% acetonitrile to 95% acetonitrile.
The determination by LC-MS in the neutral range is effected at pH 7.8 with 0.001 molar aqueous ammonium hydrogen carbonate solution and acetonitrile as the eluent; linear gradient from 10% acetonitrile to 95% acetonitrile.
The calibration is effected with unbranched alkane-2-ones (with 3 to 16 carbon atoms), the log P values of which are known (determination of log P values on the basis of the retention times by linear interpolation between two successive alkanones).

Data set [7] deals with green peach aphid (Myzus persicae). Briefly: Enhancement of activity by ammonium/phosphonium salts with penetration enhancers: Myzus persicae test. The format is in vivo. Conditions: 0.8 ppm. As to the method:
Enhancement of Activity by Ammonium/Phosphonium Salts in Combination with Penetration Enhancers Myzus persicae Test [table] To prepare an appropriate active ingredient preparation, 1 part by weight of active ingredient is mixed with the stated amount of solvent and emulsifier, and the concentrate is diluted to the desired concentration with water. […] Bell pepper plants (Capsicum annuum) heavily infested by the green peach aphid (Myzus persicae) are treated by spraying to runoff point with the active ingredient preparation of the desired concentration.

Data set [8] has as its system cereals. Briefly: Container trials with cereals in a greenhouse, mefenpyr 1 day before herbicide application. The data set is classed as in vivo. The note with it: 10 days after application, 12.5 g a.i./ha.
Data set [9] deals with Maize (Aventura). Briefly: Container tests with maize-soya-cotton in a greenhouse, cyprosulfamide 1 day before herbicide application. The format is in vivo. As to the method:
as §1, §2, §3, §4

Where [10] appears, read: Summer barley, 28 days after application, 12.5 g a.i./ha.
Setting [11] is: Summer barley, 28 days after application, 25 g a.i./ha.
The mark [12] stands for this setting: Summer barley, 28 days after application, 50 g a.i./ha.
[13] abbreviates: 28 days after application, 12.5 g a.i./ha.
Where [14] appears, read: 28 days after application, 25 g a.i./ha.
Setting [15] is: 28 days after application, 50 g a.i./ha.
Setting [16] is: 28 days after application, 100 g a.i./ha.

As to `CCCCOC1CCCC2(C1)NC(=O)C(c1c(C)cc(OCC(F)(F)F)cc1CC)=C2O` (stereo not shown) [Example I-1-a-15], the figures for the “Summer barley observed (%)” value in data set [1] (setting [10]), in data set [1] (setting [11]) and in [1] (setting [12]) were 70%, 85% and 97%, respectively. In addition, the “Summer wheat observed (%)” value stood at 10% in data set [1] (setting [13]), 30% in [1] (setting [14]), 40% in [1] (setting [15]) and 60% in data set [1] (setting [16]).
For the compound `Cc1cc(OCC(F)(F)F)cc(C)c1C1=C(O)C2CCCCN2C1=O` (stereo not shown) [Example I-1-a-20], the “effect in % (aphids killed)” value in [2] is at least 80%.
In the case of `Cc1ccc(OCC(F)(F)F)c(C)c1C1=C(O)C2(CCOCC2)NC1=O` [Example I-1-a-31], in data set [3] (4 ppm), the “Kill rate/% after 6 days +AS (1000 ppm)” value turned out to be 10%, the “Kill rate/% after 6 days +RME (1000 ppm)” value is 5%, the “Kill rate/% after 6 days +RME +AS (1000 ppm each)” value (“Kill rate/% … (1000 ppm each)” below) is 35% and the “Kill rate/% after 6 days” value was determined as 0%.
As to `CCOC(=O)OC1=C(c2c(C)cc(OCC(F)(F)F)cc2C)C(=O)NC12CCCC(OCC)C2` (stereo not shown) [Example I-1-c-2], the results for the “28 days after application Maize (Arsenal) observed (%)” value in [4] (25 g a.i./ha), in [4] (50 g a.i./ha) and in data set [4] (100 g a.i./ha) were 20%, 20% and 25%, respectively. For the same compound, the “28 days after application Maize (Cecilia) observed (%)” value in [5] (100 g a.i./ha) stood at 75%.
Turning to `Cc1cc(OCC(F)(F)F)cc(C)c1CC(=O)O` [XXXI-1, 2,6-Dimethyl-4-trifluoroethoxyphenylacetic acid], the chromatographic logP in data set [6] stood at 2.51.
On the same count and under the same terms, under `Cc1ccc(OCC(F)(F)F)cc1C1=C(OC(=O)C(C)(C)C)C2(CCCC2)OC1=O` [Example I-2-b-1] stands 4.69.
With `CCc1cc(OCC(F)(F)F)cc(C)c1C1=C(O)C2(CCC3(CC2)OCCO3)NC1=O` [Example I-1-a-6], the entries for the “Summer wheat observed (%)” value in data set [1] (setting [13]) and in [1] (setting [14]) were 70% and 85%, respectively.
On to `CCc1cc(OCC(F)(F)F)cc(C)c1C1=C(O)C2(CCC3(CC2)OCC(C)O3)NC1=O` (stereo not shown) [Example I-1-a-7], for which the “Summer wheat observed (%)” value in [1] (setting [13]) is 50%; in data set [1] (setting [14]), 50%; in data set [1] (setting [15]), 70%; in data set [1] (setting [16]), 70%.
In the case of `CCc1cc(OCC(F)(F)F)cc(C)c1C1=C(O)C2(CCC(C)(OC)CC2)NC1=O` (stereo not shown) [Example I-1-a-37], in data set [1] (setting [13]), the “Summer wheat observed (%)” value is listed as 70%.
With `COC1CCC2(CC1)NC(=O)C(c1c(C)cc(OCC(F)(F)F)cc1C)=C2O` (stereo not shown) [Example I-1-a-25], the “Kill rate/% after 6 days +AS (1000 ppm)” value in [7] (+AS (1000 ppm)) was determined as 0%; in [3] (0.8 ppm) it was 35%. Besides, the “Kill rate/% after 6 days +RME (1000 ppm)” value in [7] (+RME (1000 ppm)) is listed as 40%; in data set [3] (0.8 ppm), 20%. The “Kill rate/% … (1000 ppm each)” value is given as 55% in [7] (+RME +AS (1000 ppm each)) and 85% in data set [3] (0.8 ppm). The “Kill rate/% after 6 days” value in data set [7] (active ingredient alone, bell pepper plants) is reported as 0%; in data set [3] (0.8 ppm) it was 0%. Besides, the “Summer wheat observed (%)” value in data set [1] (setting [13]) came to 70%; in data set [8], 40%. Besides, the “28 days after application Maize (Arsenal) observed (%)” value in data set [4] (12.5 g a.i./ha) was found to be 5%; in data set [4] (25 g a.i./ha), 15%; in data set [4] (50 g a.i./ha), 75%; in [4] (100 g a.i./ha), 100%. Further, the “28 days after application Maize (Cecilia) observed (%)” value in data set [5] (12.5 g a.i./ha) is 0%; in data set [5] (25 g a.i./ha), 10%; in data set [5] (50 g a.i./ha), 20%; in [5] (100 g a.i./ha), 35%.
On to `COC1CCC2(CC1)NC(=O)C(c1c(C)ccc(OCC(F)(F)F)c1C)=C2O` (stereo not shown) [Example I-1-a-29], for which, in [3] (4 ppm), the “Kill rate/% after 6 days +AS (1000 ppm)” value is 15%, the “Kill rate/% after 6 days +RME (1000 ppm)” value amounted to 80%, the “Kill rate/% … (1000 ppm each)” value came to 95% and the “Kill rate/% after 6 days” value is 10%.
`CCOC(=O)C1(OC(=O)Cc2c(C)cc(OCC(F)(F)F)cc2C)CCOCC1` [III-1]: the chromatographic logP in data set [6] came to 3.78.
On to `Cc1ccc(OCC(F)(F)F)cc1C1=C(O)C2(CCCC2)OC1=O` [Example I-2-a-1], for which the “log P (HCOOH)” value in data set [6] (LC-MS acidic range) turned out to be 2.45. For the same compound, the chromatographic logP in data set [6] was found to be 2.59.
Consider `CCOC1CCCC2(CC1)NC(=O)C(c1c(C)cc(OCC(F)(F)F)cc1CC)=C2O` (stereo not shown) [Example I-1-a-5], for which the “Summer barley observed (%)” value in data set [1] (setting [10]) was determined as 65%; in data set [1] (setting [11]) it was 95%. Further, the “Summer wheat observed (%)” value in data set [1] (setting [13]) is 65%.
On to `CCc1cc(OCC(F)(F)F)cc(C)c1C1=C(O)C2(CCC(C)CC2)NC1=O` (stereo not shown) [Example I-1-a-8], for which the “Summer wheat observed (%)” value in data set [1] (setting [13]) came to 98%; in data set [8] it was 65%. Also, the “28 days after application Maize (Aventura) observed (%)” value in data set [9] (12.5 g a.i./ha) is on record as 35%; in data set [9] (25 g a.i./ha) it was 60%; in data set [9] (50 g a.i./ha) it was 70%.
Turning to `COCC1CCC2(CC1)NC(=O)C(c1c(C)cc(OCC(F)(F)F)cc1C)=C2O` (stereo not shown) [Example I-1-a-17], the “Summer barley observed (%)” value in [1] (setting [12]) was determined as 40%; in data set [1] (Summer barley, 28 days after application, 100 g a.i./ha), 80%; in [1] (Summer barley, 28 days after application, 200 g a.i./ha), 95%.
`CCCOC1CCCC2(C1)NC(=O)C(c1c(C)cc(OCC(F)(F)F)cc1C)=C2O` (stereo not shown) [Example I-1-a-19]: the “Summer barley observed (%)” value in data set [1] (setting [11]) was 70%. Also, the “Summer wheat observed (%)” value in [1] (setting [13]) is given as 10%; in data set [1] (setting [14]), 20%; in data set [1] (setting [15]), 70%; in [1] (setting [16]) it was 85%.
Consider `CCCOC1CCCC2(C1)NC(=O)C(c1c(C)cc(OCC(F)(F)F)cc1CC)=C2O` (stereo not shown) [Example I-1-a-14], for which the “Summer wheat observed (%)” value in data set [1] (setting [13]) is recorded as 93%; in [1] (setting [14]), 99%; in [1] (setting [15]), 100%.
As for `CO[C@H]1CC[C@]2(CC1)NC(=O)C(c1c(C)cc(OCC(F)(F)F)cc1C)=C2OC(=O)C(C)C` [Example I-1-b-2], the “Summer barley observed (%)” value in data set [1] (in vivo) is on record as 50%.
